Experiments:
[1] = target: T1, Alpha-2A adrenergic receptor (Homo sapiens) (UniProt P08913); test: Inhibition of adrenergic alpha2A receptor (unknown origin) at 10 uM by PDSP assay relative to control
T1 sequence (whole entry): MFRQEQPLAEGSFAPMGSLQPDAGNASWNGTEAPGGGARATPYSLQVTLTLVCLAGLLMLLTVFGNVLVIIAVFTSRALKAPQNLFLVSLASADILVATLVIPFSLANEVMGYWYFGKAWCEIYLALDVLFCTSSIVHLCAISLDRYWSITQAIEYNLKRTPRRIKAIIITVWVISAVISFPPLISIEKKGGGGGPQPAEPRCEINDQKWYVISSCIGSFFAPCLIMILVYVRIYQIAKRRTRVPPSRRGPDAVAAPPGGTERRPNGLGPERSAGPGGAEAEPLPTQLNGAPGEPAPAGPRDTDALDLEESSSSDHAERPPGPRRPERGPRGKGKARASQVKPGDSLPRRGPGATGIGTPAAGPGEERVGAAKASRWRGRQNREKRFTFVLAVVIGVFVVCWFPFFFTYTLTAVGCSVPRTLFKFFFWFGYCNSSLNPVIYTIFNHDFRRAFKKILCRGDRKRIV

[2] = target: T2, Alpha-2C adrenergic receptor (Homo sapiens, UniProt P18825); test: Inhibition of adrenergic alpha2C receptor (unknown origin) by PDSP assay
T2 sequence (P18825 whole entry): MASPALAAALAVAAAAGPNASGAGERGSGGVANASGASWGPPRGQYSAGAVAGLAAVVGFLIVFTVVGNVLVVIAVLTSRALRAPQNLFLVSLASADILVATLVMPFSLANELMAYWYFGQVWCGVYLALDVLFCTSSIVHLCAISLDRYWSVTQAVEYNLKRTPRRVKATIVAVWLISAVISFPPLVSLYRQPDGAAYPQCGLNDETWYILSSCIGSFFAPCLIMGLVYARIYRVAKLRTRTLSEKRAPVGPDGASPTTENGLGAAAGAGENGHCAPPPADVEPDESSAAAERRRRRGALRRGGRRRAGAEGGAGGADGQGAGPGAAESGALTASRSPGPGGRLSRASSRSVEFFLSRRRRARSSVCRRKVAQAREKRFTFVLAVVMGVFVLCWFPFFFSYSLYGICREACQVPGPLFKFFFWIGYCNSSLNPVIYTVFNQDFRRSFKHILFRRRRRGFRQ

[3] = target: Histamine H2 receptor (Homo sapiens, UniProt P25021); test: Inhibition of histamine H2 receptor (unknown origin) at 10 uM by PDSP assay relative to control
Chain of Histamine H2 receptor (P25021 whole entry): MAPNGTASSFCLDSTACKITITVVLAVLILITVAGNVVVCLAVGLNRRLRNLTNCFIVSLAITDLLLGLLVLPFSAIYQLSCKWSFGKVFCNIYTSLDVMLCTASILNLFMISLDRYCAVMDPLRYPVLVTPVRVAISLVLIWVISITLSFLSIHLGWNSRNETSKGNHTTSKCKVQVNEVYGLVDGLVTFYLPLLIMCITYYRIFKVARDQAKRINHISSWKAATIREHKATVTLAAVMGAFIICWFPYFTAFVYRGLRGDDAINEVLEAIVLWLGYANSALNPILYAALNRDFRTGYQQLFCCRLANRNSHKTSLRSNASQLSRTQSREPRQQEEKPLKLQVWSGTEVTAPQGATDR

[4] = target: T3, Muscarinic acetylcholine receptor M4 (Homo sapiens, UniProt P08173); test: Inhibition of muscarinic M4 receptor (unknown origin) by PDSP assay
T3 sequence (P08173 whole entry): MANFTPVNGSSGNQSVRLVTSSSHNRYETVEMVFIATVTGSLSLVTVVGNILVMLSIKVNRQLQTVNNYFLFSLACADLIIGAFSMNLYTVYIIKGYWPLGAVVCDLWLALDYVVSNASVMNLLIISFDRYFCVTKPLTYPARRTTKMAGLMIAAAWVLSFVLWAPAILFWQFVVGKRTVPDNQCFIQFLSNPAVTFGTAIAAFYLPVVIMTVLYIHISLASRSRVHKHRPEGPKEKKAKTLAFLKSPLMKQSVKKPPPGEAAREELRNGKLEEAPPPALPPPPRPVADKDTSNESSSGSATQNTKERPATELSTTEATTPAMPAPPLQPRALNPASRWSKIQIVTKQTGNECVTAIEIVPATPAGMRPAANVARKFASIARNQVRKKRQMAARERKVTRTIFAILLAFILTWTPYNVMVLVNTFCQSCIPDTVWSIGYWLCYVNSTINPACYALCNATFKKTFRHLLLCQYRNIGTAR

[5] = target: T4, Muscarinic acetylcholine receptor M1 (Homo sapiens) (UniProt P11229); test: Inhibition of muscarinic M1 receptor (unknown origin) at 10 uM by PDSP assay relative to control
T4 sequence (whole entry): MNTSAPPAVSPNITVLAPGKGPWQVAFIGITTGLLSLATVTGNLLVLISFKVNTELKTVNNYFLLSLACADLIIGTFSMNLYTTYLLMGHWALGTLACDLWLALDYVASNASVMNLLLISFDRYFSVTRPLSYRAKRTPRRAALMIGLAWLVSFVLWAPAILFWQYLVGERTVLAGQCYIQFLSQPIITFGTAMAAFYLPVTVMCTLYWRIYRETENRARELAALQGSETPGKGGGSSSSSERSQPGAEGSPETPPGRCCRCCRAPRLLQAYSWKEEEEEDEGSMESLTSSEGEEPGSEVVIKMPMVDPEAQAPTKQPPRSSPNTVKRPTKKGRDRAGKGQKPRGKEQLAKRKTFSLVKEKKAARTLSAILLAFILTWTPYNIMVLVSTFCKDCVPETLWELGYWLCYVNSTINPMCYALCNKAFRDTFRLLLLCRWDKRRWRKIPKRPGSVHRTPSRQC

[6] = target: GABA-A receptor; agonist GABA site (Homo sapiens) (UniProt P14867+P47870+P28472+P48169+P34903+P18505+P47869+P31644+Q16445); test: Inhibition of GABAA receptor (unknown origin) at 10 uM by PDSP assay relative to control; type: protein-complex assay
[7] = target: 5-hydroxytryptamine receptor 2A (Homo sapiens, UniProt P28223); test: Inhibition of 5-HT2A receptor (unknown origin) at 10 uM by PDSP assay relative to control
Chain of 5-hydroxytryptamine receptor 2A (P28223 whole entry): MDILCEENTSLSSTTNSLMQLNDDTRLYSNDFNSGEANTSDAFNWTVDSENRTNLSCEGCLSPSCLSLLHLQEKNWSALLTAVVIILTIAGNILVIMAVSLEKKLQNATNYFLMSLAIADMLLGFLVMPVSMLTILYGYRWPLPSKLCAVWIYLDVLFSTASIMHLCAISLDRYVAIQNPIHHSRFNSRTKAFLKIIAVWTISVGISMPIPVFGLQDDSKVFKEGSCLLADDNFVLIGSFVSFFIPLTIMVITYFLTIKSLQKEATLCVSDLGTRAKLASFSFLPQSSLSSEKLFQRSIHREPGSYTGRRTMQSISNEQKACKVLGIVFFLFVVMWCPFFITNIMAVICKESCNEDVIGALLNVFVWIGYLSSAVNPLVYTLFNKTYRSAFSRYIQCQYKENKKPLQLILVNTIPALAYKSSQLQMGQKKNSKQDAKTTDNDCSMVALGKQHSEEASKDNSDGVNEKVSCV

[8] = target: D(2) dopamine receptor (Homo sapiens, UniProt P14416); test: Inhibition of dopamine D2 receptor (unknown origin) at 10 uM by PDSP assay relative to control
Chain of D(2) dopamine receptor (P14416 whole entry): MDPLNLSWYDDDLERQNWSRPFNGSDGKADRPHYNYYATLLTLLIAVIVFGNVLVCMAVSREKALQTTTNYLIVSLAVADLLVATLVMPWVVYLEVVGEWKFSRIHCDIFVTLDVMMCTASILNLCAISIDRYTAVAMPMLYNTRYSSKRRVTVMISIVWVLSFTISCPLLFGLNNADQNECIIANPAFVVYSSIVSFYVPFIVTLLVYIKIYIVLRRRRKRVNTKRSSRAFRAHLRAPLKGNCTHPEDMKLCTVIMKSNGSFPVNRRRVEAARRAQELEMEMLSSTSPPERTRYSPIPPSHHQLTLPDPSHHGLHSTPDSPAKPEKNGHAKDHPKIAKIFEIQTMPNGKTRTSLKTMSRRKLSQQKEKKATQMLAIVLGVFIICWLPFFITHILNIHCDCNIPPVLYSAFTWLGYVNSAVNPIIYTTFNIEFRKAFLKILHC

[9] = target: Sodium-dependent dopamine transporter (Homo sapiens, UniProt Q01959); test: Displacement of [3H]-WIN-35,428 from human DAT expressed in HEK cell membranes at 10 uM relative to control; conditions: HEK293
Chain of Sodium-dependent dopamine transporter (Q01959 whole entry): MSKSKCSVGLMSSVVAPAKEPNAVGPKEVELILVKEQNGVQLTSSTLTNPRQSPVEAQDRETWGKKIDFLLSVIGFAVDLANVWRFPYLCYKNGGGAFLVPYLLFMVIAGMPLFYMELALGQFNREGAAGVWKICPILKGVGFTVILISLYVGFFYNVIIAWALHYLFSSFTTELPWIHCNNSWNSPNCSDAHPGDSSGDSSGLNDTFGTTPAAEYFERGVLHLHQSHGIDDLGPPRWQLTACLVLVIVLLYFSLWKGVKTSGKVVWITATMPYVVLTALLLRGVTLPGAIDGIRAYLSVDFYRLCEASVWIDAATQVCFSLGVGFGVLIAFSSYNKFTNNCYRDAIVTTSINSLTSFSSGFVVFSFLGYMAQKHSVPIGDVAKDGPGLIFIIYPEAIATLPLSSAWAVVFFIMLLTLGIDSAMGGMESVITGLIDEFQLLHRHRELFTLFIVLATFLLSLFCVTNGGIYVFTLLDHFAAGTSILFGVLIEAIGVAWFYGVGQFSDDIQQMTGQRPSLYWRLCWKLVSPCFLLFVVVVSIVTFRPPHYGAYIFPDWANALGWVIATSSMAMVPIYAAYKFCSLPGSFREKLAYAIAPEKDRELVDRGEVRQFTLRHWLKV

[10] = target: Histamine H1 receptor (Homo sapiens, UniProt P35367); test: Inhibition of histamine H1 receptor (unknown origin) at 10 uM by PDSP assay relative to control
Chain of Histamine H1 receptor (P35367 whole entry): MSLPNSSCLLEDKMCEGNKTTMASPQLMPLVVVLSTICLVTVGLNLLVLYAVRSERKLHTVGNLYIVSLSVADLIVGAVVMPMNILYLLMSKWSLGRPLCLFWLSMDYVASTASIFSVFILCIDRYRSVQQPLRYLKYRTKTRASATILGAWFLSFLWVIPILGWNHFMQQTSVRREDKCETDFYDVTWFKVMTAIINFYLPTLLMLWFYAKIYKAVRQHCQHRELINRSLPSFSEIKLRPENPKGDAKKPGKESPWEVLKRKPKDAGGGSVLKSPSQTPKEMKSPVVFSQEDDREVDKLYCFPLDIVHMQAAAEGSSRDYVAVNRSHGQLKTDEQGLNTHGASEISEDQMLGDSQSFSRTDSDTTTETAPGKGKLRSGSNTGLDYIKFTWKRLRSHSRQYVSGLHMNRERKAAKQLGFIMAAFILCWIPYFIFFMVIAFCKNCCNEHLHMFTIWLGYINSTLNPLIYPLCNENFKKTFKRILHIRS

inhibition [1] [%] | Ki [2] [µM] | inhibition [3] [%] | Ki [4] [µM] | inhibition [5] [%] | inhibition [6] [%] | inhibition [7] [%] | inhibition [8] [%] | inhibition [9] [%] | inhibition [10] [%] | SMILES
< 50 | 4.74 | < 50 | 2.8 | < 50 | < 50 | < 50 | < 50 | < 50 | – | CN(CCc1cccc(F)c1)[C@H]1C2C3CC4C2C(=O)C2C4C3C21 (stereo partly drawn)
< 50 | 0.993 | – | 6.81 | < 50 | < 50 | < 50 | < 50 | < 50 | < 50 | COc1ccc(CN(C)[C@H]2C3C4CC5C6C4CC3C6C52)cc1OC (stereo partly drawn)
< 50 | – | < 50 | – | < 50 | < 50 | < 50 | < 50 | < 50 | < 50 | CN(CCc1ccccn1)[C@H]1C2C3CC4C2C(=O)C2C4C3C21 (stereo partly drawn)
– | – | < 50 | 7.38 | < 50 | < 50 | < 50 | < 50 | < 50 | < 50 | COc1ccc(CN(C)[C@H]2C3C4CC5C3C(=O)C3C5C4C32)cc1OC (stereo partly drawn)
< 50 | 0.683 | – | 0.354 | – | < 50 | < 50 | – | – | – | C1C2C3CC4C2C2C1C3[C@H](NCC13C5C6C7C5C1C7C63)C42 (stereo partly drawn)
< 50 | – | < 50 | 1.3 | < 50 | – | < 50 | – | – | < 50 | c1ccc(CCN[C@H]2C3C4CC5C6C4CC3C6C52)nc1 (stereo partly drawn)
– | – | – | – | < 50 | – | < 50 | < 50 | < 50 | – | COc1ccc(CN[C@H]2C3C4CC5C6C4CC3C6C52)cc1OC (stereo partly drawn)
< 50 | – | < 50 | 6.99 | < 50 | < 50 | < 50 | < 50 | < 50 | < 50 | CN(Cc1cccnc1)[C@H]1C2C3CC4C2C(=O)C2C4C3C21 (stereo partly drawn)
< 50 | – | – | – | < 50 | – | < 50 | < 50 | – | – | c1ccc(CN[C@H]2C3C4CC5C6C4CC3C6C52)cc1 (stereo partly drawn)
< 50 | 2.28 | – | – | < 50 | < 50 | – | < 50 | < 50 | – | COc1cc(CN[C@H]2C3C4CC5C6C4CC3C6C52)cc(OC)c1OC (stereo partly drawn)
– | 2.79 | < 50 | 0.619 | – | < 50 | < 50 | < 50 | < 50 | < 50 | CN(CCCc1cccc(F)c1)[C@H]1C2C3CC4C2C(=O)C2C4C3C21 (stereo partly drawn)
< 50 | 3.98 | – | 3.59 | < 50 | < 50 | < 50 | < 50 | – | < 50 | CN(CCc1ccccc1)[C@H]1C2C3CC4C2C(=O)C2C4C3C21 (stereo partly drawn)
< 50 | – | < 50 | – | < 50 | < 50 | < 50 | < 50 | < 50 | < 50 | CN(CC1CCCCC1)[C@H]1C2C3CC4C5C3CC2C5C41 (stereo partly drawn)
< 50 | 5.05 | < 50 | 4.04 | < 50 | < 50 | < 50 | < 50 | – | < 50 | CN(Cc1cccc(F)c1)[C@H]1C2C3CC4C2C(=O)C2C4C3C21 (stereo partly drawn)
< 50 | 2.52 | < 50 | 5.91 | < 50 | < 50 | < 50 | < 50 | – | < 50 | COc1cc(CN(C)[C@H]2C3C4CC5C6C4CC3C6C52)cc(OC)c1OC (stereo partly drawn)
< 50 | 3.73 | < 50 | 3.9 | < 50 | < 50 | – | < 50 | < 50 | < 50 | CN(CCCc1cccc(F)c1)[C@H]1C2C3CC4C5C3CC2C5C41 (stereo partly drawn)
< 50 | – | < 50 | 1.27 | – | < 50 | < 50 | < 50 | < 50 | < 50 | CN(Cc1ccccc1)[C@H]1C2C3CC4C2C(=O)C2C4C3C21 (stereo partly drawn)
< 50 | – | < 50 | – | < 50 | < 50 | < 50 | < 50 | < 50 | < 50 | CN(Cc1cccnc1)[C@H]1C2C3CC4C5C3CC2C5C41 (stereo partly drawn)
< 50 | – | < 50 | 3.81 | < 50 | < 50 | < 50 | < 50 | < 50 | < 50 | CN(CCc1ccccn1)[C@H]1C2C3CC4C5C3CC2C5C41 (stereo partly drawn)
< 50 | 3.08 | – | 6.53 | < 50 | < 50 | < 50 | < 50 | < 50 | – | c1cc2c(cc1CN[C@H]1C3C4CC5C6C4CC3C6C51)OCO2 (stereo partly drawn)

SMILES | inhibition [1] [%] | Ki [2] [µM] | inhibition [3] [%] | Ki [4] [µM] | inhibition [5] [%] | inhibition [6] [%] | inhibition [7] [%] | inhibition [8] [%] | inhibition [9] [%] | inhibition [10] [%]
CN(CCc1ccccc1)[C@H]1C2C3CC4C5C3CC2C5C41 (stereo partly drawn) | < 50 | 0.865 | – | – | < 50 | < 50 | – | – | < 50 | < 50
CN(Cc1ccc2c(c1)OCO2)[C@H]1C2C3CC4C5C3CC2C5C41 (stereo partly drawn) | < 50 | – | – | – | < 50 | < 50 | < 50 | < 50 | < 50 | < 50
c1ccc(CCN[C@H]2C3C4CC5C6C4CC3C6C52)cc1 (stereo partly drawn) | – | – | – | 0.892 | < 50 | – | – | – | – | < 50
CN(Cc1ccccc1)[C@H]1C2C3CC4C5C3CC2C5C41 (stereo partly drawn) | < 50 | – | – | – | < 50 | < 50 | – | < 50 | – | < 50
